Source: PubChem BioAssay AID2060885 (Molecular Pharmacology Branch, DTP, NCI, 2025)

Test system: NCI-H23 complex spheroids with HUVEC/MSC, viability
Assay: Anticancer human tumor NCI-H23 cell line growth inhibition [RAS];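 note: spheroids exposed to compound for 7 days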;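 for viability, T/C: 100% = DMSO vehicle control viability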
Conditions: for IC50: curve of first compound; for viability, T/C: stronger effect = lower value
Summary of the method: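 Tumour cells grown as complex spheroids with HUVEC endothelial cells and mesenchymal stem cells, treated with RAS pathway inhibitor combinations. Each agent spans half-log steps from near clinical Cmax, or 10 microM where Cmax is unknown.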

[1] = second compound 0.000949 µM, first compound 0.0316 µM
[2] = second compound 0.000949 µM, first compound 0.1 µM
[3] = second compound 0.000949 µM, first compound 0.316 µM
[4] = second compound 0.000949 µM, first compound 1 µM
[5] = second compound 0.000949 µM, first compound 3.16 µM
[6] = second compound 0.000949 µM, first compound 10 µM
[7] = second compound 0.003 µM, first compound 0.0316 µM
[8] = second compound 0.003 µM, first compound 0.1 µM
[9] = second compound 0.003 µM, first compound 0.316 µM
[10] = second compound 0.003 µM, first compound 1 µM
[11] = second compound 0.003 µM, first compound 3.16 µM
[12] = second compound 0.003 µM, first compound 10 µM
[13] = second compound 0.00949 µM, first compound 0.0316 µM
[14] = second compound 0.00949 µM, first compound 0.1 µM
[15] = second compound 0.00949 µM, first compound 0.316 µM
[16] = second compound 0.00949 µM, first compound 1 µM
[17] = second compound 0.00949 µM, first compound 3.16 µM
[18] = second compound 0.00949 µM, first compound 10 µM
[19] = second compound 0.03 µM, first compound 0.0316 µM
[20] = second compound 0.03 µM, first compound 0.1 µM
[21] = second compound 0.03 µM, first compound 0.316 µM
[22] = second compound 0.03 µM, first compound 1 µM
[23] = second compound 0.03 µM, first compound 3.16 µM
[24] = second compound 0.03 µM, first compound 10 µM
[25] = second compound 0.0949 µM, first compound 0.0316 µM
[26] = second compound 0.0949 µM, first compound 0.1 µM
[27] = second compound 0.0949 µM, first compound 0.316 µM
[28] = second compound 0.0949 µM, first compound 1 µM
[29] = second compound 0.0949 µM, first compound 3.16 µM
[30] = second compound 0.0949 µM, first compound 10 µM
[31] = second compound 0.3 µM, first compound 0.0316 µM
[32] = second compound 0.3 µM, first compound 0.1 µM
[33] = second compound 0.3 µM, first compound 0.316 µM
[34] = second compound 0.3 µM, first compound 1 µM
[35] = second compound 0.3 µM, first compound 3.16 µM
[36] = second compound 0.3 µM, first compound 10 µM

CCC(CC)c1cc(NC2CCC(N)C2)n2nccc2n1 (centres undefined) + CCn1c(-c2cccnc2C(C)OC)c2c3cc(ccc31)N1CCOC(CC(NC(=O)C(C(C)C)N(C)C(=O)C3(F)CCN(C(=O)C#CC(C)(C)N(C)C)CC3)C(=O)N3CCCC(N3)C(=O)OCC(C)(C)C2)C1
IC50 (second compound 0.000949 µM): < 31.6 nM
IC50 (second compound 0.003 µM): < 31.6 nM
IC50 (second compound 0.00949 µM): < 31.6 nM
IC50 (second compound 0.03 µM): < 31.6 nM
IC50 (second compound 0.0949 µM): < 31.6 nM
IC50 (second compound 0.3 µM): < 31.6 nM
viability, T/C [1]: 32.7%
viability, T/C [2]: 33.7%
viability, T/C [3]: 24.4%
viability, T/C [4]: 28%
viability, T/C [5]: 3.12%
viability, T/C [6]: 0.38%
viability, T/C [7]: 27.1%
viability, T/C [8]: 25.2%
viability, T/C [9]: 28.3%
viability, T/C [10]: 25.9%
viability, T/C [11]: 1.84%
viability, T/C [12]: 0.31%
viability, T/C [13]: 27.7%
viability, T/C [14]: 25.1%
viability, T/C [15]: 31.2%
viability, T/C [16]: 25.8%
viability, T/C [17]: 1.37%
viability, T/C [18]: 0.37%
viability, T/C [19]: 25.3%
viability, T/C [20]: 28.2%
viability, T/C [21]: 28%
viability, T/C [22]: 25.3%
viability, T/C [23]: 0.57%
viability, T/C [24]: 0.34%
viability, T/C [25]: 25.7%
viability, T/C [26]: 25.3%
viability, T/C [27]: 28.1%
viability, T/C [28]: 24.1%
viability, T/C [29]: 0.71%
viability, T/C [30]: 0.48%
viability, T/C [31]: 22.5%
viability, T/C [32]: 24.1%
viability, T/C [33]: 27.1%
viability, T/C [34]: 20.8%
viability, T/C [35]: 0.58%
viability, T/C [36]: 0.67%

Cc1nc(N2CCC3(CC2)COC(C)C3N)c(CO)nc1Sc1ccnc(N)c1Cl (centres undefined) + CCn1c(-c2cccnc2C(C)OC)c2c3cc(ccc31)N1CCOC(CC(NC(=O)C(C(C)C)N(C)C(=O)C3(F)CCN(C(=O)C#CC(C)(C)N(C)C)CC3)C(=O)N3CCCC(N3)C(=O)OCC(C)(C)C2)C1
IC50 (second compound 0.000949 µM): < 31.6 nM
IC50 (second compound 0.003 µM): < 31.6 nM
IC50 (second compound 0.00949 µM): < 31.6 nM
IC50 (second compound 0.03 µM): < 31.6 nM
IC50 (second compound 0.0949 µM): < 31.6 nM
IC50 (second compound 0.3 µM): < 31.6 nM
viability, T/C [1]: 27.2%
viability, T/C [2]: 21%
viability, T/C [3]: 13.6%
viability, T/C [4]: 15.3%
viability, T/C [5]: 12.3%
viability, T/C [6]: 9.03%
viability, T/C [7]: 25.1%
viability, T/C [8]: 20.2%
viability, T/C [9]: 16.4%
viability, T/C [10]: 16.7%
viability, T/C [11]: 12.2%
viability, T/C [12]: 8.35%
viability, T/C [13]: 24%
viability, T/C [14]: 21.4%
viability, T/C [15]: 18%
viability, T/C [16]: 14.4%
viability, T/C [17]: 11.5%
viability, T/C [18]: 8.24%
viability, T/C [19]: 22.4%
viability, T/C [20]: 19.1%
viability, T/C [21]: 17.7%
viability, T/C [22]: 11.7%
viability, T/C [23]: 9.09%
viability, T/C [24]: 9.82%
viability, T/C [25]: 20.3%
viability, T/C [26]: 20.6%
viability, T/C [27]: 15.1%
viability, T/C [28]: 13.4%
viability, T/C [29]: 8.28%
viability, T/C [30]: 9.12%
viability, T/C [31]: 20%
viability, T/C [32]: 17.1%
viability, T/C [33]: 18.1%
viability, T/C [34]: 11.3%
viability, T/C [35]: 7.7%
viability, T/C [36]: 9.33%
